Test results: publication PMC11859928, “Design, Synthesis, and Antiproliferative Activity of Novel Indole/1,2,4-Triazole Hybrids as Tubulin Polymerization Inhibitors” (Pharmaceuticals, 2025)

Columns and labels:
Assay in all cases: NCI one-dose assay
Assay type in all cases: cell-based
[1] = test system: BT-549; conditions: Homo sapiens, BT-549, Breast cancer, read-out: Cell growth inhibition %
[2] = test system: CAKI-1; conditions: Homo sapiens, CAKI-1, Renal cancer, read-out: Cell growth inhibition %
[3] = test system: CCRF-CEM; conditions: Homo sapiens, Leukemia, read-out: Cell growth inhibition %
[4] = test system: DU-145; conditions: Homo sapiens, DU-145, Prostate cancer, read-out: Cell growth inhibition %
[5] = test system: HCC-2998; conditions: Homo sapiens, HCC-2998, Colon cancer, read-out: Cell growth inhibition %
[6] = test system: HCT-116; conditions: Homo sapiens, HCT-116, Colon cancer, read-out: Cell growth inhibition %
[7] = test system: HCT-15; conditions: Homo sapiens, HCT-15, Colon cancer, read-out: Cell growth inhibition %
[8] = test system: HOP-62; conditions: Homo sapiens, HOP-62, Non-small cell lung cancer, read-out: Cell growth inhibition %
[9] = test system: HS 578 T; conditions: Homo sapiens, Breast cancer, read-out: Cell growth inhibition %
[10] = test system: HT29; conditions: Homo sapiens, HT-29, HT29, Colon cancer, read-out: Cell growth inhibition %
[11] = test system: IGROV1; conditions: Homo sapiens, IGROV-1, IGROV1, Ovarian cancer, read-out: Cell growth inhibition %
[12] = test system: K-562; conditions: Homo sapiens, K562, K-562, Leukemia, read-out: Cell growth inhibition %
[13] = test system: KM12; conditions: Homo sapiens, KM12, Colon cancer, read-out: Cell growth inhibition %
[14] = test system: MALME-3M; conditions: Homo sapiens, Melanoma, read-out: Cell growth inhibition %
[15] = test system: MDA-MB-231/ATCC; conditions: Homo sapiens, Breast cancer, read-out: Cell growth inhibition %
[16] = test system: MDA-MB-435; conditions: Homo sapiens, MDA-MB-435, Melanoma, read-out: Cell growth inhibition %
[17] = test system: MDA-MB-468; conditions: Homo sapiens, MDA-MB-468, Breast cancer, read-out: Cell growth inhibition %
[18] = test system: MOLT-4; conditions: Homo sapiens, MOLT-4, Leukemia, read-out: Cell growth inhibition %
[19] = test system: NCI-H23; conditions: Homo sapiens, NCI-H23, Non-small cell lung cancer, read-out: Cell growth inhibition %
[20] = test system: NCI/ADR-RES; conditions: Homo sapiens, Ovarian cancer, read-out: Cell growth inhibition %
[21] = test system: OVCAR-4; conditions: Homo sapiens, OVCAR-4, Ovarian cancer, read-out: Cell growth inhibition %
[22] = test system: OVCAR-5; conditions: Homo sapiens, OVCAR-5, Ovarian cancer, read-out: Cell growth inhibition %
[23] = test system: OVCAR-8; conditions: Homo sapiens, OVCAR-8, Ovarian cancer, read-out: Cell growth inhibition %
[24] = test system: SF-539; conditions: Homo sapiens, SF-539, CNS cancer, read-out: Cell growth inhibition %
[25] = test system: SK-MEL-2; conditions: Homo sapiens, SK-MEL-2, Melanoma, read-out: Cell growth inhibition %
[26] = test system: SK-MEL-5; conditions: Homo sapiens, SK-MEL-5, Melanoma, read-out: Cell growth inhibition %
[27] = test system: SK-OV-3; conditions: Homo sapiens, SK-OV-3, Ovarian cancer, read-out: Cell growth inhibition %
[28] = test system: SN12C; conditions: Homo sapiens, Renal cancer, read-out: Cell growth inhibition %
[29] = test system: SNB-19; conditions: Homo sapiens, SNB-19, CNS cancer, read-out: Cell growth inhibition %
[30] = test system: SNB-75; conditions: Homo sapiens, SNB-75, CNS cancer, read-out: Cell growth inhibition %
[31] = test system: SR; conditions: Homo sapiens, Leukemia, read-out: Cell growth inhibition %
[32] = test system: SW-620; conditions: Homo sapiens, SW-620, Colon cancer, read-out: Cell growth inhibition %
[33] = test system: T-47D; conditions: Homo sapiens, T47D, Breast cancer, read-out: Cell growth inhibition %
[34] = test system: TK-10; conditions: Homo sapiens, TK-10, Renal cancer, read-out: Cell growth inhibition %
[35] = test system: UACC-257; conditions: Homo sapiens, UACC-257, Melanoma, read-out: Cell growth inhibition %
[36] = test system: UACC-62; conditions: Homo sapiens, UACC-62, Melanoma, read-out: Cell growth inhibition %

Row | Structure (SMILES) | inhibition at 10 µM [1] [%] | inhibition at 10 µM [2] [%] | inhibition at 10 µM [3] [%] | inhibition at 10 µM [4] [%] | inhibition at 10 µM [5] [%] | inhibition at 10 µM [6] [%] | inhibition at 10 µM [7] [%] | inhibition at 10 µM [8] [%] | inhibition at 10 µM [9] [%] | inhibition at 10 µM [10] [%] | inhibition at 10 µM [11] [%] | inhibition at 10 µM [12] [%] | inhibition at 10 µM [13] [%] | inhibition at 10 µM [14] [%] | inhibition at 10 µM [15] [%] | inhibition at 10 µM [16] [%] | inhibition at 10 µM [17] [%] | inhibition at 10 µM [18] [%] | inhibition at 10 µM [19] [%] | inhibition at 10 µM [20] [%] | further results
1 | C=CCn1c(SCC(=NO)c2ccc(OC)cc2)nnc1-c1c[nH]c2ccccc12 [Compound 7b, 2-((4-allyl-5-(1H-indol-3-yl)-4H-1,2,4-triazol-3-yl)thio)-1-(4-methoxyphenyl) Ethanone Oxime] | -3.8 | 1.5 | 8.83 | -5.85 | -8.35 | 23.6 | 4.34 | 2 | 2.61 | -5.85 | 17.6 | 13.6 | -5.28 | 3.2 | 13.5 | -10.6 | 16.3 | 8.18 | 4.86 | -3.18 | inhibition at 10 µM [21]: -1.81%; inhibition at 10 µM [22]: -4.1%; inhibition at 10 µM [23]: 7.1%; inhibition at 10 µM [24]: 4.37%; inhibition at 10 µM [25]: -7.88%; inhibition at 10 µM [26]: 10.5%; inhibition at 10 µM [27]: 1.86%; inhibition at 10 µM [28]: 8.24%; inhibition at 10 µM [29]: 1.65%; inhibition at 10 µM [30]: -12.9%; inhibition at 10 µM [31]: 3.76%; inhibition at 10 µM [32]: -2.43%; inhibition at 10 µM [33]: 26.4%; inhibition at 10 µM [34]: -27.2%; inhibition at 10 µM [35]: -11.5%; inhibition at 10 µM [36]: 20.9%
2 | C=CCn1c(SC/C(=N\O)c2ccc(C)cc2)nnc1-c1c[nH]c2ccccc12 [Compound 7c, (Z)-2-((4-allyl-5-(1H-indol-3-yl)-4H-1,2,4-triazol-3-yl)thio)-1-(p-tolyl)ethanone Oxime] | -7.22 | 20.2 | 2.91 | -2.38 | 1.5 | 22.3 | 11.3 | 8.72 | 6.55 | -4.09 | 23.2 | 13.3 | 0.27 | 9.17 | 4.01 | -2.07 | 27.1 | 20.4 | 9.29 | 1.27 | inhibition at 10 µM [21]: 6.11%; inhibition at 10 µM [22]: 1.32%; inhibition at 10 µM [23]: 8.49%; inhibition at 10 µM [24]: -1.42%; inhibition at 10 µM [25]: 1.01%; inhibition at 10 µM [26]: 11.1%; inhibition at 10 µM [27]: -0.26%; inhibition at 10 µM [28]: 11.7%; inhibition at 10 µM [29]: 8.04%; inhibition at 10 µM [30]: 2.58%; inhibition at 10 µM [31]: 16.5%; inhibition at 10 µM [32]: 4.06%; inhibition at 10 µM [33]: 26.5%; inhibition at 10 µM [34]: -26.8%; inhibition at 10 µM [35]: -6.62%; inhibition at 10 µM [36]: 30.9%
3 | C=CCn1c(SC/C(=N\O)c2ccc(Br)cc2)nnc1-c1c[nH]c2ccccc12 [Compound 7d, (Z)-2-((4-allyl-5-(1H-indol-3-yl)-4H-1,2,4-triazol-3-yl)thio)-1-(4-bromophenyl) Ethanone Oxime] | 20.4 | 25.8 | 26.7 | 6.21 | -3.65 | 47 | 26.9 | 0.14 | 22.1 | 3.35 | 30.8 | 40.8 | 8.58 | 4.84 | 23.6 | 11.5 | 42.2 | 43.7 | 17.9 | 6.71 | inhibition at 10 µM [21]: 24.5%; inhibition at 10 µM [22]: 6.82%; inhibition at 10 µM [23]: 18.3%; inhibition at 10 µM [24]: 14%; inhibition at 10 µM [25]: 8.97%; inhibition at 10 µM [26]: 40.9%; inhibition at 10 µM [27]: 3.28%; inhibition at 10 µM [28]: 16.3%; inhibition at 10 µM [29]: 8.36%; inhibition at 10 µM [30]: 6.02%; inhibition at 10 µM [31]: 28.5%; inhibition at 10 µM [32]: 7.31%; inhibition at 10 µM [33]: 39.8%; inhibition at 10 µM [34]: 12.9%; inhibition at 10 µM [35]: -1.32%; inhibition at 10 µM [36]: 36.3%
4 | C=CCn1c(SC/C(=N\O)c2ccc(Cl)cc2)nnc1-c1c[nH]c2ccccc12 [Compound 7e, (Z)-2-((4-allyl-5-(1H-indol-3-yl)-4H-1,2,4-triazol-3-yl)thio)-1-(4-chlorophenyl) Ethanone Oxime] | 14.4 | 25.4 | 17.2 | 5.88 | 8.7 | 36.1 | 21.7 | 7.33 | 12.7 | 5.77 | 29.7 | 39.3 | 4.48 | 15.6 | 23.1 | 10.7 | 43.1 | 40 | 17.4 | 3.86 | inhibition at 10 µM [21]: 19.9%; inhibition at 10 µM [22]: -2.62%; inhibition at 10 µM [23]: 16.8%; inhibition at 10 µM [24]: 5.14%; inhibition at 10 µM [25]: 3.64%; inhibition at 10 µM [26]: 27.4%; inhibition at 10 µM [27]: 3.52%; inhibition at 10 µM [28]: 14.9%; inhibition at 10 µM [29]: 12.6%; inhibition at 10 µM [30]: 4.75%; inhibition at 10 µM [31]: 12.1%; inhibition at 10 µM [32]: 9.5%; inhibition at 10 µM [33]: 46.5%; inhibition at 10 µM [34]: 1.28%; inhibition at 10 µM [35]: 6.8%; inhibition at 10 µM [36]: 35.8%
